Reference: US4999354A, “Imidazoquinoxaline compounds and their preparation and use” (A/S Ferrosan, priority 1987, dated 1991)

Test system: benzodiazepine receptors
Assay: in vivo displacement of 3H-flunitrazepam from brain benzodiazepine receptors in mice
Design: species or system mice (female, NMR)
Details: test substance intraperitoneally 15 min before 3H-FNM i.v., forebrains taken 20 min after 3H-FNM
Experimental: The ED50 value represents the dose (mg/kg) of a test substance which causes the specific binding of flunitrazepam to benzodiazepine receptors in a living brain to be reduced to 50% of the control value.
Such an in vivo test is carried out as follows:
Results. The ED50 value is determined from dose response curves.

CC(C)n1c(=O)c2c(-c3nc(C4CC4)no3)ncn2c2ccccc21 [Compound 6, 3-(3-cyclopropyl-1,2,4-oxadiazol-5-yl)-4,5-dihydro-5-isopropyl-4-oxo-imidazo[1,5-a] quinoxaline]
ED50 (dose that inhibits 50% of specific 3H-flunitrazepam binding to brain benzodiazepine receptors): 0.28 mg/kg
